Test results reported in ChEMBL document CHEMBL4823254, “Tetrahydroquinoline-Capped Histone Deacetylase 6 Inhibitor SW-101 Ameliorates Pathological Phenotypes in a Charcot-Marie-Tooth Type 2A Mouse Model” (J Med Chem, 2021).
The source made the active and inactive calls. The calls are words filed in the database; no cut-off is given here.

Assays:
[1] = Genotoxicity in Salmonella typhimurium TA100 at 5 to 100 uM in presence of liver S9 fraction by Ames test; assay type: toxicity; details: salmonella enterica subsp. enterica serovar typhimurium, s9, 100 µM; dose 5-100 µM
[2] = Half life in C57BL/6J mouse plasma at 15 mg/kg, ip; assay type: ADME, organism-based
[3] = Cmax in C57BL/6J mouse plasma at 15 mg/kg, ip; assay type: ADME, organism-based; design: route intraperitoneal, dose 15 mg/kg
[4] = molecular target: T1, Histone deacetylase 8 (Homo sapiens, UniProt Q9BY41)
T1 sequence (Q9BY41 whole entry): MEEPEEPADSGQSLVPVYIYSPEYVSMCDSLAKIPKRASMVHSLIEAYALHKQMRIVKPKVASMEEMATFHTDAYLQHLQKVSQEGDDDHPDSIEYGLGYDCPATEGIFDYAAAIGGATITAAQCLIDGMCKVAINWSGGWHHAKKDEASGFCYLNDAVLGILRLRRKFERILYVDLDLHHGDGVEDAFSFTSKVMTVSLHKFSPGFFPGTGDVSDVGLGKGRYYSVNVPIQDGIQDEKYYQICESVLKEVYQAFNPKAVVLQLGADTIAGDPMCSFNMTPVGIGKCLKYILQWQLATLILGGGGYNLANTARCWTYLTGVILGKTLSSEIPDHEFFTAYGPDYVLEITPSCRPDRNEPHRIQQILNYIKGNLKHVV
Description: Inhibition of recombinant human HDAC8 using Boc-Lys(TFA)-AMC as substrate preincubated for 10 mins followed by substrate addition and measured after 30 mins by fluorescence-based assay

[5] = Genotoxicity in Salmonella typhimurium TA98 at 5 to 100 uM in absence of liver S9 fraction by Ames test; assay type: toxicity; details: salmonella enterica subsp. enterica serovar typhimurium, s9, 100 µM; dose 5-100 µM
[6] = test system: Mus musculus; assay: Neuroprotective activity in hMFN2-induced CMT2A transgenic mouse model assessed as assessed as latency to fall at 20 mg/kg, ip qd administered for 26 weeks when treated prior with compound dissolved in PBS/PEG400/Tween80/EtOH (50/35/10/5) wt% as vehicle by rotarod test; assay type: functional, organism-based
[7] = Half life in mouse liver s9 fraction; assay type: ADME, subcellular
[8] = test system: Mus musculus; assay: Neuroprotective activity in hMFN2-induced CMT2A transgenic mouse model assessed as increase in motor performance at 20 mg/kg, ip qd by rotarod test; assay type: functional, organism-based
[9] = molecular target: T2, Protein deacetylase HDAC6 (Mus musculus) (UniProt Q9Z2V5); assay: In vivo inhibition of HDAC6 in hMFN2-induced CMT2A transgenic mouse model assessed as increase in acetylated tubulin in distal sciatic nerve tissue at 20 mg/kg, ip qd administered for 22 weeks when treated prior with compound dissolved in PBS/PEG400/Tween80/EtOH (50/35/10/5) wt% as vehicle by Western blot analysis; assay type: functional, organism-based
T2 sequence (whole entry): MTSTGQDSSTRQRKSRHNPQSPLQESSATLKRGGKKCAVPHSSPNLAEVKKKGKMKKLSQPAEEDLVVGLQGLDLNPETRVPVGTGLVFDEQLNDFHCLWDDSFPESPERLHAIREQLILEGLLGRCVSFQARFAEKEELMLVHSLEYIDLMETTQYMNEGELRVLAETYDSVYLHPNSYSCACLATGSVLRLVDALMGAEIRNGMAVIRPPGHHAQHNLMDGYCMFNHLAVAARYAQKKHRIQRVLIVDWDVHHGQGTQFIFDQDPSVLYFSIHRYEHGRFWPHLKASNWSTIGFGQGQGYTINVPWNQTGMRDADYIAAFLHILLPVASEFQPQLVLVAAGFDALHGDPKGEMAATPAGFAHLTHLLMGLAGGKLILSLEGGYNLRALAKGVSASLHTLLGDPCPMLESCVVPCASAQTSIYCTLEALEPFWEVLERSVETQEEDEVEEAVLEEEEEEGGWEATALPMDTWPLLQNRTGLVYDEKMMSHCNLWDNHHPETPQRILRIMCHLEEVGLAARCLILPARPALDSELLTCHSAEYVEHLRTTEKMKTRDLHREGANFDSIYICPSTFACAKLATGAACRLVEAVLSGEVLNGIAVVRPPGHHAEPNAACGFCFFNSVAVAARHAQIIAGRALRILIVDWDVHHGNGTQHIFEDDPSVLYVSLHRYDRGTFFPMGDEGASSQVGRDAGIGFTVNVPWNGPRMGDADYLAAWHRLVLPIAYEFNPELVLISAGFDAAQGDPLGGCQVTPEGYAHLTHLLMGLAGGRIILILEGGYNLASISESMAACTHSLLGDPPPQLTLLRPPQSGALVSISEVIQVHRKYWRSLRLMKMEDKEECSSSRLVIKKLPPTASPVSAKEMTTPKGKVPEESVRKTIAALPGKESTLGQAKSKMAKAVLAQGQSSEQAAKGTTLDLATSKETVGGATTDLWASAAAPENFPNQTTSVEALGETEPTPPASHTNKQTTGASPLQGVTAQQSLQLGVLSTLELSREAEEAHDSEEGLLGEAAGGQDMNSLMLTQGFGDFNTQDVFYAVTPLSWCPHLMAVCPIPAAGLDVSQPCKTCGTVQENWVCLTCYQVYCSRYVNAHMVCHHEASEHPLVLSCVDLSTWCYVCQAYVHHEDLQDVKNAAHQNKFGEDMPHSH

[10] = molecular target: T2, Protein deacetylase HDAC6 (Mus musculus); assay: In vivo inhibition of HDAC6 in hMFN2-induced CMT2A transgenic mouse model assessed as increase in acetylated tubulin in distal sciatic nerve tissue at 20 mg/kg, ip qd administered for 22 weeks by Western blot analysis; assay type: functional, organism-based
[11] = Tmax in C57BL/6J mouse brain at 15 mg/kg, ip; assay type: ADME, organism-based
[12] = test system: Mus musculus; assay: Neuroprotective activity in hMFN2-induced CMT2A transgenic mouse model assessed as increase in paw withdrawal latency at 20 mg/kg, ip qd administered when treated prior with compound dissolved in PBS/PEG400/Tween80/EtOH (50/35/10/5) wt% as vehicle by von Frey test; assay type: functional, organism-based
[13] = molecular target: T3, Histone deacetylase 11 (Homo sapiens, UniProt Q96DB2); assay: Inhibition of recombinant human HDAC11 expressed in HEK293T/17 cells using Boc-Lys(TFA)-AMC as substrate preincubated for 10 mins followed by substrate addition and measured after 30 mins by fluorescence-based assay
T3 sequence (Q96DB2 whole entry): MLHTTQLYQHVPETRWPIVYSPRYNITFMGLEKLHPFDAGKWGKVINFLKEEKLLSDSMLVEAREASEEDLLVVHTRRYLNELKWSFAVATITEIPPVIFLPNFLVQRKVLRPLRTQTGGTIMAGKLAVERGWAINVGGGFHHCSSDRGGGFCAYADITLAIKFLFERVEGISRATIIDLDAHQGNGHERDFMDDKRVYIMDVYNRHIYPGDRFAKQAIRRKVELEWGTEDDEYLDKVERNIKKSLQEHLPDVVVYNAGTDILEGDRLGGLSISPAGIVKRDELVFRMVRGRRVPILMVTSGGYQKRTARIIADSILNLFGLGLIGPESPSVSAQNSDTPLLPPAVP

[14] = molecular target: T2, Protein deacetylase HDAC6 (Mus musculus); assay: In vivo inhibition of HDAC6 in wild type mouse assessed as increase in alpha-tubulin acetylation in sciatic nerve tissue at 20 mg/kg, ip administered for 12 hrs by immunoblot analysis relative to control; assay type: functional, organism-based; design: scale not given: the % may be the effect or the level left
[15] = test system: Mus musculus; assay: Neuroprotective activity in hMFN2-induced CMT2A transgenic mouse model assessed as increase in paw withdrawal latency at 20 mg/kg, ip qd by von Frey test; assay type: functional, organism-based
[16] = Toxicity in mouse assessed as adverse effect at 10 to 20 mg/kg, ip administered for 3 days every 12 hrs; assay type: organism-based; details: in vivo, 72 h, dose 10-20 mg/kg, time 3 day

half-life [2]: 26.4 min
Cmax [3]: 3580 ng/mL
IC50 [4]: 651 nM
half-life [7]: 213 min
inhibition [9]: inactive
inhibition [10]: Active
Tmax [11]: 15 min
IC50 [13]: 5310 nM
Activity [14]: 175%
Structure (SMILES): NC(=O)c1ccc2c(c1)CCCN2Cc1ccc(C(=O)NO)cc1
Activity [1]: Non-Toxic
Activity [5]: Non-Toxic
Activity [6]: Active
Activity [8]: Active
Activity [12]: Active
Activity [15]: Active
Activity [16]: Non-Toxic
